{"source": "patent US20160207969A1", "about": "“CLOSTRIDIUM DIFFICILE TARGETING MOIETIES AND CONSTRUCTS COMPRISING SAID MOIETIES” (C3 Jian, Inc., priority 2014, published 2016)", "key": {"[1]": {"test_system": "C. difficile isolate CD43601 (ATCC 43601, non-toxigenic)", "details": "ATCC 43601, 24 h"}, "[2]": {"test_system": "C. difficile isolate CD1803 (ATCC BAA-1803)", "details": "ATCC BAA-1803, 24 h"}, "[3]": {"test_system": "C. difficile isolate CD43255 (ATCC 43255)", "details": "ATCC 43255, 24 h"}, "L. casei": {"test_system": "L. casei", "details": "24 h"}, "B. fragilis [4]": {"test_system": "B. fragilis", "details": "24 h"}, "[5]": {"test_system": "C. difficile isolate CD1875 (ATCC BAA-1875)", "details": "ATCC BAA-1875, 24 h"}, "[6]": {"test_system": "C. difficile isolate CD1382 (ATCC 630, strain 1382)", "details": "ATCC 630, 24 h"}, "[7]": {"test_system": "C. difficile isolate 1803", "details": "Clostridium difficile, 15 min"}, "B. fragilis [8]": {"test_system": "B. fragilis", "experiment": "Peptide killing kinetics (CFU plating, co-culture)", "assay_type": "cell-based", "details": "for activity on un-targeted organism B. fragilis compared to the levels seen on C. difficile isolate 1803: killing kinetics; for surviving B. fragilis: through 2 hours of STAMP exposure"}, "Trubrum": {"test_system": "Trubrum", "experiment": "MIC of antimicrobial peptides (Table 3)", "assay_type": "cell-based"}, "C. difficile": {"test_system": "C. difficile", "experiment": "MIC of antimicrobial peptides (Table 3)", "assay_type": "cell-based", "details": "unit not given"}}, "note": "Ends that are not written are not given here.", "data": [{"substance": "LATLKKYLKEHKKMGKIFGAIWPLALGALKNLIK-NH2 [CD0126 + Lys_A1_M3]", "values": [{"measurement": "MIC values", "setting": "[1]", "value": 7.8, "unit": "µg/mL"}, {"measurement": "MIC values", "setting": "[2]", "value": 7.8, "unit": "µg/mL"}, {"measurement": "MIC values", "setting": "[3]", "value": 7.8, "unit": "µg/mL"}, {"measurement": "MIC values", "setting": "L. casei", "value": ">250", "unit": "µg/mL"}, {"measurement": "MIC values", "setting": "B. fragilis [4]", "value": ">250", "unit": "µg/mL"}, {"measurement": "MIC values", "setting": "[5]", "value": 7.8, "unit": "µg/mL"}, {"measurement": "MIC values", "setting": "[6]", "value": 3.9, "unit": "µg/mL"}]}, {"substance": "NILRVLKQVWKGGGKNLRIIRKGIHIIKKY-NH2 (C-terminus assumed) [CD9232_G2_3G]", "values": [{"measurement": "MIC values", "setting": "[1]", "value": 7.8, "unit": "µg/mL"}, {"measurement": "MIC values", "setting": "[2]", "value": 7.8, "unit": "µg/mL"}, {"measurement": "MIC values", "setting": "[3]", "value": 7.8, "unit": "µg/mL"}, {"measurement": "viable C. difficile recovered", "setting": "[7]", "value": "< 90", "unit": "%"}, {"measurement": "MIC values", "setting": "L. casei", "value": 125, "unit": "µg/mL"}, {"measurement": "MIC values", "setting": "B. fragilis [4]", "value": 15.6, "unit": "µg/mL"}, {"measurement": "activity on un-targeted organism B. fragilis compared to the levels seen on C. difficile isolate 1803", "setting": "B. fragilis [8]", "value": "less active"}, {"measurement": "surviving B. fragilis", "setting": "B. fragilis [8]", "value": "did not significantly decrease"}, {"measurement": "MIC values", "setting": "[5]", "value": 31.3, "unit": "µg/mL"}, {"measurement": "MIC values", "setting": "[6]", "value": 3.9, "unit": "µg/mL"}]}, {"substance": "LSLATFAKIFMTRSNWSLKRFNRL (Antimicrobial peptide) [PF-278]", "values": [{"measurement": "Organism MIC", "setting": "Trubrum", "value": "Trubrum, 50 μM"}]}, {"substance": "MKRRRCNWCGKLFYLEEKSKEAYCCKECRKKAKKVKK (Antimicrobial peptide) [PF-307]", "values": [{"measurement": "Organism MIC", "setting": "Trubrum", "value": "Trubrum, 50 μM"}]}, {"substance": "MIRIRSPTKKKLNRNSISDWKSNTSGRFFY (Antimicrobial peptide) [PF-283]", "values": [{"measurement": "Organism MIC", "setting": "Trubrum", "value": "Trubrum, 50 μM"}]}, {"substance": "VPAKLLRVIDEIPGGKIFGAIWPLALGALKNLIK-NH2 [CD0714 + Lys_A1_2G]", "values": [{"measurement": "MIC values", "setting": "[1]", "value": 15.6, "unit": "µg/mL"}, {"measurement": "MIC values", "setting": "[2]", "value": 125, "unit": "µg/mL"}, {"measurement": "MIC values", "setting": "[3]", "value": 62.5, "unit": "µg/mL"}, {"measurement": "MIC values", "setting": "L. casei", "value": ">250", "unit": "µg/mL"}, {"measurement": "MIC values", "setting": "B. fragilis [4]", "value": ">250", "unit": "µg/mL"}, {"measurement": "MIC values", "setting": "[5]", "value": 31.3, "unit": "µg/mL"}, {"measurement": "MIC values", "setting": "[6]", "value": 31.3, "unit": "µg/mL"}]}, {"substance": "VPAKLLRVIDEIPGGFLKFLKKFFKKLKY-NH2 [CD0714 + AF5_2G]", "values": [{"measurement": "MIC values", "setting": "[2]", "value": 62.5, "unit": "µg/mL"}, {"measurement": "MIC values", "setting": "[3]", "value": 31.3, "unit": "µg/mL"}, {"measurement": "MIC values", "setting": "L. casei", "value": ">250", "unit": "µg/mL"}, {"measurement": "MIC values", "setting": "B. fragilis [4]", "value": ">250", "unit": "µg/mL"}, {"measurement": "MIC values", "setting": "[5]", "value": 62.5, "unit": "µg/mL"}, {"measurement": "MIC values", "setting": "[6]", "value": 31.3, "unit": "µg/mL"}]}, {"substance": "GNFYRLFKDILKGGGKNLRIIRKGIHIIKKY-NH2 (C-terminus assumed) [CD8040_G2_3G]", "values": [{"measurement": "MIC values", "setting": "[1]", "value": 31.3, "unit": "µg/mL"}, {"measurement": "MIC values", "setting": "[2]", "value": 15.6, "unit": "µg/mL"}, {"measurement": "MIC values", "setting": "[3]", "value": 31.3, "unit": "µg/mL"}, {"measurement": "viable C. difficile recovered", "setting": "[7]", "value": "< 90", "unit": "%"}, {"measurement": "MIC values", "setting": "L. casei", "value": ">250", "unit": "µg/mL"}, {"measurement": "MIC values", "setting": "B. fragilis [4]", "value": 62.5, "unit": "µg/mL"}, {"measurement": "activity on un-targeted organism B. fragilis compared to the levels seen on C. difficile isolate 1803", "setting": "B. fragilis [8]", "value": "less active"}, {"measurement": "surviving B. fragilis", "setting": "B. fragilis [8]", "value": "did not significantly decrease"}, {"measurement": "MIC values", "setting": "[5]", "value": 62.5, "unit": "µg/mL"}, {"measurement": "MIC values", "setting": "[6]", "value": 15.6, "unit": "µg/mL"}]}, {"substance": "LATKLKYEKEHKKMGGGGFLKFLKKFFKKLKYY-NH2 [CD0126 + AF5_4G]", "values": [{"measurement": "MIC values", "setting": "[1]", "value": 7.8, "unit": "µg/mL"}, {"measurement": "MIC values", "setting": "[2]", "value": 31.3, "unit": "µg/mL"}, {"measurement": "MIC values", "setting": "[3]", "value": 15.6, "unit": "µg/mL"}, {"measurement": "viable C. difficile recovered", "setting": "[7]", "value": "< 90", "unit": "%"}, {"measurement": "MIC values", "setting": "L. casei", "value": ">250", "unit": "µg/mL"}, {"measurement": "MIC values", "setting": "B. fragilis [4]", "value": ">250", "unit": "µg/mL"}, {"measurement": "activity on un-targeted organism B. fragilis compared to the levels seen on C. difficile isolate 1803", "setting": "B. fragilis [8]", "value": "less active"}, {"measurement": "surviving B. fragilis", "setting": "B. fragilis [8]", "value": "did not significantly decrease"}, {"measurement": "MIC values", "setting": "[5]", "value": 15.6, "unit": "µg/mL"}, {"measurement": "MIC values", "setting": "[6]", "value": 15.6, "unit": "µg/mL"}]}, {"substance": "VPAKLLRVIKEIPGGFLKFLKKFFKKLK-NH2 [CD0714 + AF5_2G_M7]", "values": [{"measurement": "MIC values", "setting": "[1]", "value": 7.8, "unit": "µg/mL"}, {"measurement": "MIC values", "setting": "[2]", "value": 3.9, "unit": "µg/mL"}, {"measurement": "MIC values", "setting": "[3]", "value": 3.9, "unit": "µg/mL"}, {"measurement": "MIC values", "setting": "L. casei", "value": ">250", "unit": "µg/mL"}, {"measurement": "MIC values", "setting": "B. fragilis [4]", "value": ">250", "unit": "µg/mL"}, {"measurement": "MIC values", "setting": "[5]", "value": 15.6, "unit": "µg/mL"}, {"measurement": "MIC values", "setting": "[6]", "value": 7.8, "unit": "µg/mL"}]}, {"substance": "GSVIKKRRKRMAKKKHRKLLKKTRIQRRRAGK [PF-527]", "values": [{"measurement": "Organism MIC", "setting": "Trubrum", "value": "Trubrum, 25 μM"}]}, {"substance": "MRFGSLALVAYDSAIKHSWPRPSSVRRLRM (Antimicrobial peptide) [PF-672]", "values": [{"measurement": "Organism MIC", "setting": "Trubrum", "value": "Trubrum, 0.78 μM"}]}, {"substance": "VPAKLLRVIKKIPGGFLKFLKKFFKKLK-NH2 [CD0714 + AF5_2G_M4]", "values": [{"measurement": "MIC values", "setting": "[1]", "value": 3.9, "unit": "µg/mL"}, {"measurement": "MIC values", "setting": "[2]", "value": 7.8, "unit": "µg/mL"}, {"measurement": "MIC values", "setting": "[3]", "value": 7.8, "unit": "µg/mL"}, {"measurement": "MIC values", "setting": "L. casei", "value": 125, "unit": "µg/mL"}, {"measurement": "MIC values", "setting": "B. fragilis [4]", "value": 62.5, "unit": "µg/mL"}, {"measurement": "MIC values", "setting": "[5]", "value": 15.6, "unit": "µg/mL"}, {"measurement": "MIC values", "setting": "[6]", "value": 3.9, "unit": "µg/mL"}]}, {"substance": "VLPFPAIPLSRRRACVAAPRPRSRQRAS (Antimicrobial peptide) [PF-168]", "values": [{"measurement": "Organism MIC", "setting": "Trubrum", "value": "Trubrum, 50 μM"}]}, {"substance": "LATKLKYEKEHKKMGKIFGAIWPLALGALKNLIK-NH2 [CD0126 + Lys_A1_1G]", "values": [{"measurement": "MIC values", "setting": "[1]", "value": 15.6, "unit": "µg/mL"}, {"measurement": "MIC values", "setting": "[2]", "value": 7.8, "unit": "µg/mL"}, {"measurement": "MIC values", "setting": "[3]", "value": 15.6, "unit": "µg/mL"}, {"measurement": "viable C. difficile recovered", "setting": "[7]", "value": "< 90", "unit": "%"}, {"measurement": "MIC values", "setting": "L. casei", "value": ">250", "unit": "µg/mL"}, {"measurement": "MIC values", "setting": "B. fragilis [4]", "value": ">250", "unit": "µg/mL"}, {"measurement": "MIC values", "setting": "[5]", "value": 15.6, "unit": "µg/mL"}, {"measurement": "MIC values", "setting": "[6]", "value": 7.8, "unit": "µg/mL"}]}, {"substance": "FELVDWLETNLGKILKSKSA (Antimicrobial peptide) [PF-522]", "values": [{"measurement": "Organism MIC", "setting": "C. difficile", "value": "C. difficile, 25"}]}, {"substance": "VPAKLLRVIDEIPKLFKFLRKHLL-NH2 [CD0714 + BD2-21_NG]", "values": [{"measurement": "MIC values", "setting": "[1]", "value": 3.9, "unit": "µg/mL"}, {"measurement": "MIC values", "setting": "[2]", "value": 15.6, "unit": "µg/mL"}, {"measurement": "MIC values", "setting": "[3]", "value": 7.8, "unit": "µg/mL"}, {"measurement": "MIC values", "setting": "L. casei", "value": 125, "unit": "µg/mL"}, {"measurement": "MIC values", "setting": "B. fragilis [4]", "value": ">250", "unit": "µg/mL"}, {"measurement": "MIC values", "setting": "[5]", "value": 15.6, "unit": "µg/mL"}, {"measurement": "MIC values", "setting": "[6]", "value": 7.8, "unit": "µg/mL"}]}, {"substance": "WSRVPGHSDTGWKVWHRW (Antimicrobial peptide) [PF-547]", "values": [{"measurement": "Organism MIC", "setting": "Trubrum", "value": "Trubrum, 25 μM"}]}]}
